According to US20180296630A1, “METHODS AND COMPOSITIONS FOR PREVENTING OR TREATING OPHTHALMIC CONDITIONS” (Stealth BioTherapeutics Corp, priority 2012, published 2018):

Tests used:
[1] = test system: STZ and HFD/STZ diabetic rats; assay: Inner blood-retinal barrier function (Evans blue extravasation) in diabetic SD rats; type: in vivo, Sprague-Dawley rat; conditions: compared to rats on a HFD not administered peptide
Protocol: FIGS. 10A and 10B are charts showing the integrity of the blood-retinal barrier of normal rats (NRC), diabetic rats, and diabetic rats treated with Phe-D-Arg-Phe-Lys-NH2 (SS-20) or D-Arg-2′,6′-Dmt-Lys-Phe-NH2(SS-31), as analyzed by Evans blue extravasation. (A) diabetes induced by STZ; (B) diabetes induced by HFD/STZ.
A rat model of diabetes was established by combination of 6-week HFD and low dose of STZ (30 mg/kg) injection or a single high dose of STZ (65 mg/kg) in SD rats. See generally, K. Srinivasan, B. Viswanad, Lydia Asrat, C. L. Kaul and P. Ramarao, Combination of high-fat diet-fed and low-dose streptozotocin-treated rat: A model for type 2 diabetes and pharmacological screening, Pharmacological Research, 52(4): 313-320, 2005. Rats of the same batch fed with normal chow (NRC) were used as a control.
The effect of the aromatic-cationic peptides on the inner blood-retinal barrier function in the SD rat model was investigated.

GTM3 cells = assay: MMP decline, sustained oxidative injury by H2O2, GTM3 cells; type: cell-based, human; conditions: then 200 μM H2O2 24 h
Protocol: The effects of D-Arg-2′,6′-Dmt-Lys-Phe-NH2 on sustained oxidative injury of GTM and HTM cells was examined. Cells were pre-treated with 10^−6, 10^−7, 10^−8M of D-Arg-2′,6′-Dmt-Lys-Phe-NH2 for 1 h, and then incubated with 200 μM H2O2 for 24 h to investigate the protective effect of D-Arg-2′,6′-Dmt-Lys-Phe-NH2 in sustained oxidative stress.

[2] = test system: primary human retinal pigment epithelial (RPE) cells; assay: Apoptosis of RPE cells induced by tBHP; type: cell-based; conditions: 1 μM for 4 h + 250 μM tBHP for 24 h
Protocol: FIG. 34A: control group; (Q2+Q4)%=1.27±0.3%; FIG. 34B: 250 μM tBHP for 24 h group; (Q2+Q4)%=15.7±0.6%; FIG. 34C: 1 μM D-Arg-2′,6′-Dmt-Lys-Phe-NH2 for 4 h+250 μM tBHP for 24 h group; (Q2+Q4)%=8.4±0.8%. FIG. 34D is a chart comparing the fluorescence ratio for the different groups. *P<0.05 C vs. B. FIG. 35 is a chart showing the MDA level induced by tBHP in 3 groups of RPE cells. (*P<0.05).

CNV mouse model = assay: Laser-induced choroidal neovascularization (CNV) mouse model; type: in vivo, C57BL/6 male mice; conditions: one week after laser
Excerpt: CNV were induced in the eye with laser burns. Methods useful in the present studies have been described by Reich, Mol Vis 2003; 9:210-216.
Briefly, five to six-week-old C57BL/6 male mice were anesthetized with chloral hydrate and the pupils were dilated with tropicamide. With a coverslip used as a contact lens, four laser spots (532 nm, 260 mw, 0.01 s, 50 μm; Novus Spectra, Lumenis, USA) were applied to the fundus in a circle around the optic disc in the right eye. Daily intraperitoneal injections of 1 mg/kg, 9 mg/kg D-Arg-2′,6′-Dmt-Lys-Phe-NH2 (D-Arg-2′,6′-Dmt-Lys-Phe-NH2) or vehicle were started the day prior to laser photocoagulation.
After one week, mice were deeply anaesthetized and perfused through the left ventricle with 1 ml (50 mg/ml) of PB S-buffered fluorescein-dextran. Eyes were enucleated and fixed in 4% paraformaldehyde for 2 h. The eyes were sectioned at the equator, and the anterior half and retina were removed. The posterior eye segment containing the sclera and choroid was dissected into quarters by four to five radial cuts and mounted on a slide. All flatmounts were examined by a fluorescence microscope (AxioCam MRC; Carl Zeiss). […]
There were 48 locations of neovascularization in each group. The area of neovascularization was calculated using IMAGE-PROPLUS6.0 software. […]

OIR mouse model = assay: Oxygen-induced retinopathy (OIR) mouse model; type: in vivo
Excerpt: In this model, 7-day-old mouse pups with partially developed retinal vasculature were subjected to hyperoxia (75% oxygen) for 5 days, which stops retinal vessel growth and causes significant vaso-obliteration. On postnatal day 12, the pups were returned to room air, and by postnatal day 17, a florid compensatory retinal neovascularization occurred. This model of pathological neovascularization has been widely used as a substitute for proliferative diabetic retinopathy (DR).
To examine the effects of the aromatic-cationic peptides of the invention on prevention of OIR, OIR was induced in mouse pups and the mice were simultaneously administered an aromatic-cationic peptide (e.g., Phe-D-Arg-Phe-Lys-NH2 or D-Arg-2′,6′-Dmt-Lys-Phe-NH2) for approximately 6 weeks. The results are shown in FIG. 26 and indicate that treatment with D-Arg-2′,6′-Dmt-Lys-Phe-NH2 prevented the compensatory retinal neovascularization. As such, the aromatic-cationic peptides of the invention are useful in methods of preventing proliferative diabetic retinopathy in mammalian subjects.

## D-Arg-2′,6′-Dmt-Lys-Phe-NH2
[1]
  inner blood-retinal barrier function: improved
GTM3 cells; 0.01 μM pre-treatment 1 h
  MMP Decline: −31.33 ± 1.20 %
GTM3 cells; 0.1 μM pre-treatment 1 h
  MMP Decline: −29.33 ± 2.19 %
GTM3 cells; 1 μM pre-treatment 1 h
  MMP Decline: −24.33 ± 4.18 %
[2]
  (Q2+Q4)% cell apoptosis: 8.4±0.8%
CNV mouse model; 1 mg/kg daily intraperitoneal
  area of neovascularization: 0.0068±0.0025
CNV mouse model; 9 mg/kg daily intraperitoneal
  area of neovascularization: 0.0067±0
OIR mouse model; OIR mouse model (FIG. 26)
  avascular area: reduced
OIR mouse model; OIR mouse pups
  compensatory retinal neovascularization: prevented
